Reference: PubChem BioAssay (NCI)
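48-hour exposure; five concentrations; linearly interpolated endpoints. TGI is the concentration that stops growth completely.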

Tests used:
Experiment in all cases: NCI tumour cell line growth inhibition, 48 h
MALME-3M melanoma = system: MALME-3M melanoma
SK-MEL-2 melanoma = system: SK-MEL-2 melanoma
LOX IMVI melanoma = system: LOX IMVI melanoma
M14 melanoma = system: M14 melanoma
EKVX NSCLC = system: EKVX NSCLC
UACC-62 melanoma = system: UACC-62 melanoma
SN12C renal = system: SN12C renal
U251 CNS = system: U251 CNS
MCF7 breast = system: MCF7 breast
OVCAR-8 ovarian = system: OVCAR-8 ovarian
PC-3 prostate = system: PC-3 prostate
SNB-75 CNS = system: SNB-75 CNS
NCI/ADR-RES ovarian = system: NCI/ADR-RES ovarian
ACHN renal = system: ACHN renal
MOLT-4 leukemia = system: MOLT-4 leukemia
NCI-H460 lung = system: NCI-H460 lung
SR leukemia = system: SR leukemia
BT-549 breast = system: BT-549 breast
HL-60(TB) leukemia = system: HL-60(TB) leukemia
TK-10 renal = system: TK-10 renal
HOP-92 NSCLC = system: HOP-92 NSCLC
SNB-19 CNS = system: SNB-19 CNS
SK-MEL-28 melanoma = system: SK-MEL-28 melanoma
NCI-H522 lung = system: NCI-H522 lung
HCT-15 colon = system: HCT-15 colon
A498 renal = system: A498 renal
IGROV1 ovarian = system: IGROV1 ovarian
SF-295 CNS = system: SF-295 CNS
KM12 colon = system: KM12 colon
OVCAR-5 ovarian = system: OVCAR-5 ovarian
SF-268 CNS = system: SF-268 CNS
RPMI-8226 leukemia = system: RPMI-8226 leukemia
UACC-257 melanoma = system: UACC-257 melanoma
786-0 renal = system: 786-0 renal
HCC-2998 colon = system: HCC-2998 colon
MDA-MB-231 breast = system: MDA-MB-231 breast
SK-MEL-5 melanoma = system: SK-MEL-5 melanoma
T-47D breast = system: T-47D breast
HOP-62 NSCLC = system: HOP-62 NSCLC
K-562 leukemia = system: K-562 leukemia
CCRF-CEM leukemia = system: CCRF-CEM leukemia
CAKI-1 renal = system: CAKI-1 renal
SF-539 CNS = system: SF-539 CNS
MDA-MB-435 = system: MDA-MB-435
HS 578T breast = system: HS 578T breast
NCI-H226 lung = system: NCI-H226 lung
COLO 205 colon = system: COLO 205 colon
SK-OV-3 ovarian = system: SK-OV-3 ovarian
HT29 colon = system: HT29 colon
MDA-N = system: MDA-N
SW-620 colon = system: SW-620 colon
RXF 393 renal = system: RXF 393 renal
NCI-H23 lung = system: NCI-H23 lung
DU-145 prostate = system: DU-145 prostate
OVCAR-4 ovarian = system: OVCAR-4 ovarian
UO-31 renal = system: UO-31 renal
A549 NSCLC = system: A549 NSCLC
OVCAR-3 ovarian = system: OVCAR-3 ovarian
HCT-116 colon = system: HCT-116 colon

## COC(=O)/C=C\C(C#N)(C#N)N=Cc1cccc(OC)c1
MALME-3M melanoma
  TGI: 4.37 µM
SK-MEL-2 melanoma
  TGI: 32.4 µM
LOX IMVI melanoma
  TGI: > 50.8 µM
M14 melanoma
  TGI: 10.4 µM
EKVX NSCLC
  TGI: 23.8 µM
UACC-62 melanoma
  TGI: 31.8 µM
SN12C renal
  TGI: 27.1 µM
U251 CNS
  TGI: 32.2 µM
MCF7 breast
  TGI: 38.9 µM
OVCAR-8 ovarian
  TGI: 10.5 µM
PC-3 prostate
  TGI: 29.5 µM
SNB-75 CNS
  TGI: 29.6 µM
NCI/ADR-RES ovarian
  TGI: 35.7 µM
ACHN renal
  TGI: 7.63 µM
MOLT-4 leukemia
  TGI: 17.7 µM
NCI-H460 lung
  TGI: 40.8 µM
SR leukemia
  TGI: > 24.5 µM
BT-549 breast
  TGI: 20.4 µM
HL-60(TB) leukemia
  TGI: > 100 µM
TK-10 renal
  TGI: 4.78 µM
HOP-92 NSCLC
  TGI: 7.29 µM
SNB-19 CNS
  TGI: 46.3 µM
SK-MEL-28 melanoma
  TGI: 29.4 µM
NCI-H522 lung
  TGI: 3 µM
HCT-15 colon
  TGI: 4.54 µM
A498 renal
  TGI: 34.7 µM
IGROV1 ovarian
  TGI: 24 µM
SF-295 CNS
  TGI: 53.8 µM
KM12 colon
  TGI: 32.6 µM
OVCAR-5 ovarian
  TGI: 20.1 µM
SF-268 CNS
  TGI: 33.4 µM
RPMI-8226 leukemia
  TGI: > 28 µM
UACC-257 melanoma
  TGI: 29.8 µM
786-0 renal
  TGI: 13.7 µM
HCC-2998 colon
  TGI: 34.4 µM
MDA-MB-231 breast
  TGI: 29 µM
SK-MEL-5 melanoma
  TGI: 31.4 µM
T-47D breast
  TGI: 18.9 µM
HOP-62 NSCLC
  TGI: > 62.1 µM
K-562 leukemia
  TGI: > 100 µM
CCRF-CEM leukemia
  TGI: > 50.8 µM
CAKI-1 renal
  TGI: 5.17 µM
SF-539 CNS
  TGI: 7.83 µM
MDA-MB-435
  TGI: 13.5 µM
HS 578T breast
  TGI: 38 µM
NCI-H226 lung
  TGI: 28.7 µM
COLO 205 colon
  TGI: 5.06 µM
SK-OV-3 ovarian
  TGI: 47.1 µM
HT29 colon
  TGI: 10.5 µM
MDA-N
  TGI: 17.2 µM
SW-620 colon
  TGI: 5.68 µM
RXF 393 renal
  TGI: 9.62 µM
NCI-H23 lung
  TGI: 16.4 µM
DU-145 prostate
  TGI: 27.7 µM
OVCAR-4 ovarian
  TGI: 18.8 µM
UO-31 renal
  TGI: 8.46 µM
A549 NSCLC
  TGI: 35.1 µM
OVCAR-3 ovarian
  TGI: 26.1 µM
HCT-116 colon
  TGI: 7.14 µM

## O=[N+]([O-])C(/C=C(\Cl)[N+](=O)[O-])=C1Nc2ccccc2N1
MALME-3M melanoma
  TGI: > 100 µM
LOX IMVI melanoma
  TGI: > 100 µM
M14 melanoma
  TGI: > 100 µM
EKVX NSCLC
  TGI: > 100 µM
UACC-62 melanoma
  TGI: > 100 µM
SN12C renal
  TGI: > 100 µM
U251 CNS
  TGI: > 100 µM
MCF7 breast
  TGI: > 100 µM
OVCAR-8 ovarian
  TGI: > 100 µM
PC-3 prostate
  TGI: > 100 µM
SNB-75 CNS
  TGI: > 100 µM
NCI/ADR-RES ovarian
  TGI: > 100 µM
ACHN renal
  TGI: > 100 µM
MOLT-4 leukemia
  TGI: > 100 µM
NCI-H460 lung
  TGI: > 100 µM
SR leukemia
  TGI: 75.1 µM
BT-549 breast
  TGI: > 100 µM
HL-60(TB) leukemia
  TGI: > 100 µM
TK-10 renal
  TGI: > 100 µM
HOP-92 NSCLC
  TGI: 87 µM
SNB-19 CNS
  TGI: > 100 µM
SK-MEL-28 melanoma
  TGI: > 100 µM
NCI-H522 lung
  TGI: > 100 µM
HCT-15 colon
  TGI: > 100 µM
A498 renal
  TGI: 70.4 µM
IGROV1 ovarian
  TGI: > 100 µM
SF-295 CNS
  TGI: > 100 µM
KM12 colon
  TGI: > 100 µM
SF-268 CNS
  TGI: > 100 µM
RPMI-8226 leukemia
  TGI: > 100 µM
UACC-257 melanoma
  TGI: > 100 µM
786-0 renal
  TGI: > 100 µM
HCC-2998 colon
  TGI: > 100 µM
MDA-MB-231 breast
  TGI: > 100 µM
SK-MEL-5 melanoma
  TGI: > 100 µM
T-47D breast
  TGI: 69 µM
HOP-62 NSCLC
  TGI: > 100 µM
K-562 leukemia
  TGI: > 100 µM
CCRF-CEM leukemia
  TGI: 97.5 µM
CAKI-1 renal
  TGI: 69.4 µM
SF-539 CNS
  TGI: 93.3 µM
MDA-MB-435
  TGI: > 100 µM
HS 578T breast
  TGI: > 100 µM
NCI-H226 lung
  TGI: 97.2 µM
COLO 205 colon
  TGI: > 100 µM
SK-OV-3 ovarian
  TGI: > 100 µM
HT29 colon
  TGI: > 100 µM
MDA-N
  TGI: > 100 µM
SW-620 colon
  TGI: > 100 µM
RXF 393 renal
  TGI: 95.9 µM
NCI-H23 lung
  TGI: > 100 µM
DU-145 prostate
  TGI: > 100 µM
OVCAR-4 ovarian
  TGI: > 100 µM
UO-31 renal
  TGI: > 100 µM
A549 NSCLC
  TGI: > 100 µM
OVCAR-3 ovarian
  TGI: > 100 µM
HCT-116 colon
  TGI: > 100 µM
